Measured values from the supplement of paper PMC10307832.

How the values were obtained:
Assay in all cases: relative viability (nuclei count vs DMSO), 5 days (fraction); higher = more cells survive
[1] = compound: COc1nc(N)nc2c1ncn2[C@@H]1O[C@H](CO)[C@@H](O)[C@@H]1O [Nelarabine] + CS(=O)(=O)N1CCN(Cc2cc3nc(-c4cccc5[nH]ncc45)nc(N4CCOCC4)c3s2)CC1 [Pictilisib] (partner 1 µM)
In short: (§1)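 After 5 days of treatment, lung cancer cells in 1536-well plates were fixed and stained in a single step (final 0.05% Triton X-100, 1% formaldehyde, 1 ug/ml Hoechst) and their nuclei counted on 4× images. Treatment had been applied by pin tool the day after seeding as one drug alone or as a fixed anchor-drug dose with five library-drug doses (not always all listed) in √10 steps. Relative viability is the nuclei count of treated wells divided by that of vehicle wells, and values are medians of duplicate plates.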

[2] = compound: COc1nc(N)nc2c1ncn2[C@@H]1O[C@H](CO)[C@@H](O)[C@@H]1O [Nelarabine] + CC(=O)c1c(C)c2cnc(Nc3ccc(N4CCNCC4)cn3)nc2n(C2CCCC2)c1=O [Palbociclib] (partner 0.5 µM)
In short: as §1

[3] = compound: COc1nc(N)nc2c1ncn2[C@@H]1O[C@H](CO)[C@@H](O)[C@@H]1O [Nelarabine] + CC(=O)Nc1cccc(-n2c(=O)n(C3CC3)c(=O)c3c(Nc4ccc(I)cc4F)n(C)c(=O)c(C)c32)c1 [Trametinib] (partner 0.02 µM)
In short: as §1

[4] = compound: C=CCn1c(=O)c2cnc(Nc3ccc(N4CCN(C)CC4)cc3)nc2n1-c1cccc(C(C)(C)O)n1 [Adavosertib] + CC(=O)c1c(C)c2cnc(Nc3ccc(N4CCNCC4)cn3)nc2n(C2CCCC2)c1=O [Palbociclib] (partner 0.5 µM)
In short: as §1

Row | Cell Line | relative viability ([1]; first compound 0.01 µM) | relative viability ([1]; first compound 0.03162 µM) | relative viability ([1]; first compound 0.1 µM) | relative viability ([1]; first compound 0.3162 µM) | relative viability ([1]; first compound 1 µM) | relative viability ([2]; first compound 0.01 µM) | relative viability ([2]; first compound 0.03162 µM) | relative viability ([2]; first compound 0.1 µM) | relative viability ([2]; first compound 0.3162 µM) | relative viability ([2]; first compound 1 µM) | relative viability ([3]; first compound 0.01 µM) | relative viability ([3]; first compound 0.03162 µM) | relative viability ([3]; first compound 0.1 µM) | relative viability ([3]; first compound 0.3162 µM) | relative viability ([3]; first compound 1 µM) | relative viability ([4]; first compound 0.01 µM) | relative viability ([4]; first compound 0.03162 µM) | relative viability ([4]; first compound 0.1 µM) | relative viability ([4]; first compound 0.3162 µM)
1 | NCI-H2347 | 0.555 | 0.303 | 0.766 | 0.726 | 0.606 | 0.407 | 0.37 | 0.42 | 0.402 | 0.481 | 0.338 | 0.3 | 0.307 | 0.304 | 0.27 | 0.41 | 0.419 | 0.444 | 0.44
2 | NCI-H3122 | 0.588 | 0.388 | – | 0.63 | 0.611 | 0.194 | 0.145 | – | 0.201 | 0.207 | 0.307 | 0.163 | – | 0.23 | 0.237 | 0.216 | 0.198 | 0.184 | 0.213
3 | HCC-15 | 0.893 | 0.669 | 0.76 | 0.871 | 0.832 | 0.847 | 0.695 | 0.788 | 0.837 | 0.677 | 0.431 | 0.427 | 0.307 | 0.42 | 0.386 | 0.744 | 0.706 | 0.739 | 0.899
4 | HCC-78 | 0.156 | 0.215 | – | 0.261 | 0.231 | 0.433 | 0.41 | – | 0.484 | 0.46 | 1.19 | 0.74 | – | 0.853 | 0.96 | 0.531 | 0.525 | 0.508 | 0.428
5 | A549 | 0.729 | 0.546 | 0.499 | 0.577 | 0.463 | – | – | – | – | – | – | – | – | – | – | – | – | – | –
6 | PC-3 [JPC-3] | 0.599 | 0.853 | 0.7 | 0.895 | 0.749 | 0.562 | 0.544 | 0.524 | 0.526 | 0.533 | 0.753 | 0.808 | 0.683 | 0.672 | 0.775 | – | 0.502 | 0.28 | 0.544
7 | NCI-H1395 | 0.729 | 0.646 | 0.659 | 0.694 | 0.618 | 0.543 | 0.559 | 0.69 | 0.566 | 0.622 | 1.12 | 1.1 | 0.946 | 1.05 | 1.12 | 0.616 | 0.657 | 0.591 | 0.674
8 | SK-MES-1 | 0.34 | 0.318 | 0.331 | 0.358 | 0.373 | 0.3 | 0.327 | 0.305 | 0.316 | 0.354 | 0.56 | 0.567 | 0.57 | 0.555 | 0.615 | 0.343 | 0.337 | 0.305 | 0.25
9 | CAL-12T | 0.393 | 0.642 | 0.365 | 0.494 | 0.423 | 0.474 | 0.489 | 0.551 | 0.412 | 0.515 | 0.351 | 0.314 | 0.404 | 0.352 | 0.347 | 0.403 | 0.492 | 0.425 | 0.262
10 | LCLC-97TM1 | 0.196 | 0.202 | 0.152 | 0.248 | 0.22 | – | – | 0.299 | 0.229 | 0.265 | – | – | 0.189 | 0.203 | 0.224 | 0.25 | 0.213 | 0.237 | 0.294
11 | HOP-62 | 0.833 | 0.743 | 0.815 | 0.574 | 0.706 | 0.567 | 0.49 | 0.496 | 0.419 | 0.485 | 0.47 | 0.516 | 0.369 | 0.36 | 0.408 | 0.496 | 0.513 | 0.59 | 0.486
12 | NCI-H1703 | 0.248 | – | 0.237 | 0.211 | 0.227 | – | – | – | – | – | – | – | – | – | – | – | – | – | –
13 | NCI-H596 | 0.402 | 0.445 | 0.399 | 0.376 | 0.446 | – | – | – | – | – | 0.912 | 0.861 | 0.783 | 0.907 | 0.834 | – | – | – | –
14 | NCI-H2126 | 0.517 | 0.48 | 0.453 | 0.483 | 0.5 | 0.347 | 0.352 | 0.326 | 0.353 | 0.403 | 0.666 | 0.612 | 0.599 | 0.52 | 0.538 | 0.352 | 0.34 | 0.352 | 0.35
15 | NCI-H2087 | 0.961 | 0.975 | 0.99 | 1.22 | 1.02 | 0.251 | 0.189 | 0.268 | 0.198 | 0.192 | 0.181 | 0.167 | 0.196 | 0.245 | 0.202 | 0.218 | 0.217 | 0.263 | 0.243
16 | NCI-H1355 | 0.484 | 0.366 | 0.335 | 0.465 | 0.478 | 0.398 | 0.316 | 0.401 | 0.401 | 0.447 | 0.451 | 0.343 | 0.43 | 0.346 | 0.477 | 0.417 | 0.401 | 0.395 | 0.408
17 | EBC-1 | 0.372 | 0.284 | 0.407 | 0.329 | 0.461 | – | – | – | – | – | – | – | – | – | – | – | – | – | –
18 | ABC-1 | 0.901 | 0.828 | 0.584 | 1.01 | 0.756 | 0.624 | 0.553 | 0.762 | 0.625 | 0.692 | – | – | – | – | – | 0.736 | 0.745 | 0.777 | 0.896
19 | NCI-H358 | 0.374 | 0.3 | 0.294 | 0.362 | 0.328 | 0.121 | 0.136 | 0.129 | 0.127 | 0.139 | 0.124 | 0.14 | 0.109 | 0.149 | 0.123 | 0.15 | 0.137 | 0.0992 | 0.128
20 | NCI-H520 | 0.387 | 0.256 | 0.345 | 0.322 | 0.314 | 0.215 | 0.186 | 0.236 | 0.261 | 0.168 | 0.817 | 0.599 | 0.757 | 0.903 | 0.697 | 0.22 | 0.214 | 0.229 | 0.246
